Measurements: article PMC10958501, “4-Oxypiperidine Ethers as Multiple Targeting Ligands at Histamine H3 Receptors and Cholinesterases” (ACS Chemical Neuroscience, 2024)

Tests used:
gpH3R = biological target: T1, gpH3R (Cavia porcellus, UniProt Q9JI35); assay: Ex vivo gpH3R screening on isolated guinea pig ileum electrically stimulated to contraction
T1 construct: isolated guinea pig ileum electrically stimulated to contraction; from tissue; host or cells: distal ileum of male guinea pigs
Description: All newly synthesized compounds were evaluated ex vivo as H3R antagonists/inverse agonists on guinea pig ileum (gpH3R) stimulated electrically for contraction.[47]
The compounds were tested against H3R by an ex vivo assay using isolated guinea pig ileum electrically stimulated to contraction, according to Vollinga et al.[47] The pA2-values were calculated according to Arunlakshana and Schild.[59] The radioligand-displacement assay was performed in membrane fractions of HEK-293 cells stably expressing hH3R. Cell cultivation and membrane preparation were performed according to Kottke et al.[48] The Ki values were calculated from the IC50 values using the Cheng–Prusoff equation.[60] The statistical calculations were performed on −log(Ki). […] The inhibitory activities toward AChE and BuChE of novel ADS compounds were assessed in a spectrophotometric Ellman’s assay using electric eel AChE (eeAChE) and equine BuChE (eqBuChE).[57] Intracellular cAMP accumulation was measured with a homogeneous TR-FRET immunoassay using the LANCE Ultra cAMP kit (PerkinElmer) and HEK293 cells stably expressing the human histamine H3 receptor.[61] A more detailed description of the biological methods is presented in the Supporting Information.
3. Pharmacological assay results.
3.1. Ex vivo assay for histamine H 3R receptor antagonists on guinea pig ileum.
Male guinea pigs, weighing 300-400 g were euthanized by a blow to the neck. Following this, a 20-30 cm length of the distal ileum, apart from the terminal 5 cm was rapidly removed and […]
USA) (1·10 -6 mol/L). The intraluminal content was rinsed and the isolated intestine was cut into 1.5-2 cm segments. The preparations were mounted between two platinum electrodes […]
and indomethacin (3·10 -7 mol/L).
CO2 mixture and maintained at 37 °C under a constant load of 1.0 g (Hugo Sachs Hebel-Messvorsatz (Tl-2)/HF-modem; Hugo Sachs Elektronik, Hugstetten, Germany) connected to a pen recorder (Kipp & Zonen BD41, Delft, Holland). During an equilibration period of 60 min, the Krebs buffer was changed every 10 min. The preparations were then continuously stimulated at 15-20 V at a frequency of 0.1 Hz for a duration of 0.5 ms, with rectangular-wave electrical pulses (Grass Stimulator S-88; Grass Instruments Co., Quincy, Massachusetts, […]
USA). […] Five minutes before (R)-(−)-α- […]
methylhistamine (RAMH) (Toronto Research Chemicals Inc., North York, Canada), administration, pyrilamine (Sigma-Aldrich, St. Louis, MO, USA) (1·10-5 mol/L concentration in organ bath) was added. The first cumulative concentration-response curve was determined […]
second to fourth curve was measured against increasing antagonist concentration (incubation time 20 min). The pA2-values were calculated according to Arunlakshana and Schild 5.
Statistical analysis was carried out with the Student’s t-test. In all tests, a p<0.05 was […]
considered statistically significant. The pA2 values were compared with the affinity of thioperamide (Sigma-Aldrich, St. Louis, MO, USA). […]

eeAChE = biological target: T2, eeAChE (Electrophorus electricus, UniProt O42275); assay: biochemical
T2 construct: purchased Sigma–Aldrich (Steinheim, Germany)

eqBuChE = eqBuChE (Equus caballus, UniProt P81908); assay: biochemical
[1] = biological target: T3, human histamine H3 receptor (Homo sapiens, UniProt Q9Y5N1); assay: H3R intrinsic activity, cAMP accumulation assay in HEK293 cells; format: cell-based
T3 construct: expressed in transfected cells
Description: For the lead compound ADS031, intrinsic activity at H3R was tested in HEK293 cells expressing recombinant human receptors using a cAMP accumulation assay. […] […].
The compounds were tested against H3R by an ex vivo assay using isolated guinea pig ileum electrically stimulated to contraction, according to Vollinga et al.[47] The pA2-values were calculated according to Arunlakshana and Schild.[59] The radioligand-displacement assay was performed in membrane fractions of HEK-293 cells stably expressing hH3R. Cell cultivation and membrane preparation were performed according to Kottke et al.[48] The Ki values were calculated from the IC50 values using the Cheng–Prusoff equation.[60] The statistical calculations were performed on −log(Ki). The mean values and 95% confidence intervals were transformed to nanomolar concentrations. The inhibitory activities toward AChE and BuChE of novel ADS compounds were assessed in a spectrophotometric Ellman’s assay using electric eel AChE (eeAChE) and equine BuChE (eqBuChE).[57] Intracellular cAMP accumulation was measured with a homogeneous TR-FRET immunoassay using the LANCE Ultra cAMP kit (PerkinElmer) and HEK293 cells stably expressing the human histamine H3 receptor.[61] A more detailed description of the biological methods is presented in the Supporting Information.
3.4. H3R intrinsic activity.
Intracellular cAMP accumulation was measured with homogenous TR-FRET immunoassay, using LANCE Ultra cAMP kit (PerkinElmer) and HEK293 cells, stably expressing human histamine H3 receptor. An antagonist dose-response experiments were performed in a total assay volume of 20 μl in white 384-well plates, using 750 cells/well. […] TR-FRET signal was read on Spark microplate reader (Tecan Life Sciences). Measured TR-FRET, which was inversely proportional to cAMP quantities in the sample, was then normalized and presented as % of maximal cAMP accumulation in the assay determined for the forskolin alone-stimulated cells. […]

T3 sequence (Q9Y5N1 whole entry): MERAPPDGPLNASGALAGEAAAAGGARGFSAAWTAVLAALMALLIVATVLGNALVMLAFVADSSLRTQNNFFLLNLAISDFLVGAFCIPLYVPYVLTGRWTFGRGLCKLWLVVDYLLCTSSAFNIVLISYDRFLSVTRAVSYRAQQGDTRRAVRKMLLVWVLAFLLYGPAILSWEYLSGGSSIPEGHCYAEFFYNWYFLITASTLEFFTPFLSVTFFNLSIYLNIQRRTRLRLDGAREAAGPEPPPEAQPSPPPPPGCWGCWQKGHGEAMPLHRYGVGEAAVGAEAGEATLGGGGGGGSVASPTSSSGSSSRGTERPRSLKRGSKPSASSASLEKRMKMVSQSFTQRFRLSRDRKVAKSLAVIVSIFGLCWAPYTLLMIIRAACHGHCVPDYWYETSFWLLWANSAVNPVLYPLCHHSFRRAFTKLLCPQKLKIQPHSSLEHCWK
Chain of eqBuChE (P81908 whole entry): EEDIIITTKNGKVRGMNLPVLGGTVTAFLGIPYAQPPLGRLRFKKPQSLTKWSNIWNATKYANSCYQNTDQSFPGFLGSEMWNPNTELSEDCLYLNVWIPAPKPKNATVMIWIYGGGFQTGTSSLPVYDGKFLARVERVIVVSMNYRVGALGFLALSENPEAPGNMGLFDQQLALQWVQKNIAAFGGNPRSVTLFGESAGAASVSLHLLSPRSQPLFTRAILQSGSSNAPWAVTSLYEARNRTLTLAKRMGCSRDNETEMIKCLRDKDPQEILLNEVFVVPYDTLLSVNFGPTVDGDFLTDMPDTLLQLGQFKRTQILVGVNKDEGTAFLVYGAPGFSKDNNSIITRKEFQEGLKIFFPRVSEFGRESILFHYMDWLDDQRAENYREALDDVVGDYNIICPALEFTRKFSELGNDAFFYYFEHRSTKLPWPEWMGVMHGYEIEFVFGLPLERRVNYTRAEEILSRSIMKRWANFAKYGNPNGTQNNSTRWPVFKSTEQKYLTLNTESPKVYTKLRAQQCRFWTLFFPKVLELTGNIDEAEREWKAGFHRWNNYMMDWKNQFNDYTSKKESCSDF
T2 sequence (O42275 24-633): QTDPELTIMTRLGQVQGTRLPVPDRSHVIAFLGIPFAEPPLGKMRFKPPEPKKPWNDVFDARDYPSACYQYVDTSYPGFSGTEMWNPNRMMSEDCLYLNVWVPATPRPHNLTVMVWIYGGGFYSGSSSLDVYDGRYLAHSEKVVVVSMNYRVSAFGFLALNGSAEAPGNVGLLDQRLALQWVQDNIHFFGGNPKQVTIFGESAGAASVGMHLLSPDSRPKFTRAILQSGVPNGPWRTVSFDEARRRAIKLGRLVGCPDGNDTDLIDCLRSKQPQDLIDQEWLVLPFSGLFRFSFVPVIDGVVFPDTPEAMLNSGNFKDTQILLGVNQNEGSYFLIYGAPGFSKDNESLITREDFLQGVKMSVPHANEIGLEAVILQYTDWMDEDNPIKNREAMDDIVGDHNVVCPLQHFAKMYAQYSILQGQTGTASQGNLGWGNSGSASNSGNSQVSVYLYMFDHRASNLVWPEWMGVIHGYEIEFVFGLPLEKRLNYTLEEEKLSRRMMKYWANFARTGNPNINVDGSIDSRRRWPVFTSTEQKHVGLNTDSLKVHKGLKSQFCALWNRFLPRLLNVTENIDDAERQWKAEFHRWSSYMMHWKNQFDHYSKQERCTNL
T1 sequence (Q9JI35 whole entry): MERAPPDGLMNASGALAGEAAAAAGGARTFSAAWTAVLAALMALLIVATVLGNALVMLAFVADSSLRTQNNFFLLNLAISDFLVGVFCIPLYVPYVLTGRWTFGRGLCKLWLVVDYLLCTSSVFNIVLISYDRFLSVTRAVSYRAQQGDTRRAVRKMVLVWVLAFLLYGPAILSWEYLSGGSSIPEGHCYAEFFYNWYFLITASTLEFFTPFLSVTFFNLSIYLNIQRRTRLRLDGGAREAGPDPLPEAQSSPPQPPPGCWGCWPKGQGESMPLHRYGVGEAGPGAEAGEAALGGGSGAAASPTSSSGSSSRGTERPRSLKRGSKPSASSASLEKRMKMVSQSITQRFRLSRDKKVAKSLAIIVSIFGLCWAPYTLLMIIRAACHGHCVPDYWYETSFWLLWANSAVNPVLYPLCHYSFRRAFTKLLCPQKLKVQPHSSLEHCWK

In the case of CCCN(C)Cc1ccc2cc(COC3CCN(Cc4ccccc4)CC3)ccc2c1 [ADS031, N-((6-(((1-Benzylpiperidin-4-yl)oxy)methyl)naphthalen-2-yl)methyl)-N-methylpropan-1-amine], the Kb (gpH3R) is reported as 28.8 nM, the inhibition at 10 µM (eeAChE; read-out: eeAChE % inh. (10μM) ± SD) is reported as 84.2 ± 0.6% and the IC50 (eeAChE; read-out: eeAChE IC50 (μM) ± sem) is reported as 1.54 ± 0.038 µM. For the same compound, the inhibition at 10 µM (eqBuChE; read-out: eqBuChE % inh. (10 μM) ± SD) was 93.1 ± 0.4%, the IC50 (eqBuChE; read-out: eqBuChE IC50 [μM] ± sem) was 1.35 ± 0.05 µM and the Kb ([1]; Leff-Dougall variant of Cheng-Prusoff equation, read-out: Kb in H3R functional assay (cAMP accumulation)) was 0.75 ± 0.15 nM. The IC50 ([1]; against (R)-(−)-α-methylhistamine (30 nM), forskolin-stimulated HEK293 cells, read-out: IC50 in H3R functional assay (cAMP accumulation)) was 41.7 ± 8.5 nM and the H3R intrinsic activity ([1]; cAMP accumulation assay) was “H3R antagonist/inverse agonist”.
